Test system: 855422-203-R-J1-PDC complex spheroids, viability
Experiment: Anticancer human tumor 855422-203-R-J1-PDC patient-derived bladder carcinoma cell line growth inhibition [CLK]
Settings: for IC50: curve of first compound; for viability, T/C: stronger effect = lower value
Summary of the method: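 Patient-derived tumor cells grown as complex spheroids with HUVEC endothelial cells and mesenchymal stem cells, treated with drug combinations. Concentrations descend in half-log steps from near clinical Cmax, or from 10 microM if Cmax unknown.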
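Also: spheroids exposed to drugs for seven days before readout.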
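For viability, T/C in this document: 100% = DMSO vehicle control wells.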

`Nc1ccn(C2OC(CO)C(O)C2(F)F)c(=O)n1` (configuration not stated) + CN1CCN(c2cc(C(=O)Nc3cc4cc(-c5cnn(C)c5)ccc4cn3)ccn2)CC1 was tested, and the IC50 (second compound 0.0316 µM) was < 0.0316 µM, the IC50 (second compound 0.1 µM) was < 0.0316 µM and the IC50 (second compound 0.316 µM) was < 0.0316 µM. For the same molecule, the IC50 (second compound 1 µM) was < 0.0316 µM, the IC50 (second compound 3.16 µM) was < 0.0316 µM and the IC50 (second compound 10 µM) was < 0.0316 µM. For the same molecule, the viability, T/C (second compound 0.0316 µM, first compound 0.0316 µM) was 27.6%, the viability, T/C (second compound 0.0316 µM, first compound 0.1 µM) was 15.1% and the viability, T/C (second compound 0.0316 µM, first compound 0.316 µM) was 15.8%. The viability, T/C (second compound 0.0316 µM, first compound 1 µM) was 11.4%, the viability, T/C (second compound 0.0316 µM, first compound 3.16 µM) was 9.09% and the viability, T/C (second compound 0.0316 µM, first compound 10 µM) was 6.12%. The viability, T/C (second compound 0.1 µM, first compound 0.0316 µM) was 24.4%, the viability, T/C (second compound 0.1 µM, first compound 0.1 µM) was 15.4% and the viability, T/C (second compound 0.1 µM, first compound 0.316 µM) was 11.5%. For the same molecule, the viability, T/C (second compound 0.1 µM, first compound 1 µM) was 11.9%, the viability, T/C (second compound 0.1 µM, first compound 3.16 µM) was 5.33% and the viability, T/C (second compound 0.1 µM, first compound 10 µM) was 4.86%. It also gave a viability, T/C (second compound 0.316 µM, first compound 0.0316 µM) of 4.07%, a viability, T/C (second compound 0.316 µM, first compound 0.1 µM) of 3.72% and a viability, T/C (second compound 0.316 µM, first compound 0.316 µM) of 4.47%. For the same molecule, the viability, T/C (second compound 0.316 µM, first compound 1 µM) was 2.24%, the viability, T/C (second compound 0.316 µM, first compound 3.16 µM) was 1.5% and the viability, T/C (second compound 0.316 µM, first compound 10 µM) was 0.93%. It also gave a viability, T/C (second compound 1 µM, first compound 0.0316 µM) of 1.32%, a viability, T/C (second compound 1 µM, first compound 0.1 µM) of 0.15% and a viability, T/C (second compound 1 µM, first compound 0.316 µM) of 2.17%. The viability, T/C (second compound 1 µM, first compound 1 µM) was 0.1%, the viability, T/C (second compound 1 µM, first compound 3.16 µM) was 0.13% and the viability, T/C (second compound 1 µM, first compound 10 µM) was 0.13%. It also gave a viability, T/C (second compound 3.16 µM, first compound 0.0316 µM) of 0.98%, a viability, T/C (second compound 3.16 µM, first compound 0.1 µM) of 3.09% and a viability, T/C (second compound 3.16 µM, first compound 0.316 µM) of 0.39%. It also gave a viability, T/C (second compound 3.16 µM, first compound 1 µM) of 0.24%, a viability, T/C (second compound 3.16 µM, first compound 3.16 µM) of 1.1% and a viability, T/C (second compound 3.16 µM, first compound 10 µM) of 0.29%. It also gave a viability, T/C (second compound 10 µM, first compound 0.0316 µM) of 0.28%, a viability, T/C (second compound 10 µM, first compound 0.1 µM) of 0.41% and a viability, T/C (second compound 10 µM, first compound 0.316 µM) of 0.24%. For the same molecule, the viability, T/C (second compound 10 µM, first compound 1 µM) was 0.83%, the viability, T/C (second compound 10 µM, first compound 3.16 µM) was 0.25% and the viability, T/C (second compound 10 µM, first compound 10 µM) was 0.23%.

Reference: PubChem BioAssay AID2060609 (Molecular Pharmacology Branch, DTP, NCI, 2025)
